Experimental data taken from patent publication US20240166652A1, “MODULATORS OF THE INTEGRATED STRESS PATHWAY” (Calico Life Sciences LLC, priority 2017, published 2024).

System: ATF4 luciferase reporter in HEK293T cells
Experiment: ATF4-Luc assay (ATF4 luciferase reporter, tunicamycin-treated HEK293T cells)
Type: cell-based, human
Settings: Homo sapiens, HEK-293T; HEK293T cells carrying the ATF4 luciferase reporter, 1 μg/mL tunicamycin, 7 hours
Method: In order to test exemplary compounds of the invention in a cellular context, a stable VWMD cell line was first constructed. The ATF4 reporter was prepared by fusing the human full-length ATF4 5′-UTR (NCBI Accession No. BC022088.2) in front of the firefly luciferase (FLuc) coding sequence lacking the initiator methionine as described in Sidrauski et al (eLife 2013). The construct was used to produce recombinant retroviruses using standard methods and the resulting viral supernatant was used to transduce HEK293T cells, which were then subsequently selected with puromycin to generate a stable cell line.
HEK293T cells carrying the ATF4 luciferase reporter were plated on polylysine coated 384-well plates (Greiner Bio-one) at 30,000 cells per well. Cells were treated the next day with 1 μg/mL tunicamycin and 200 nM of a compound of Formula (I) for 7 hours. Luminescence was measured using One Glo (Promega) as specified by the manufacturer. Cells were maintained in DMEM with L-glutamine supplemented with 10% heat-inactivated FBS (Gibco) and Antibiotic-Antimycotic solution (Gibco).
Table 2 below summarizes the EC50 data obtained using the ATF4-Luc assay for exemplary compounds of the invention.

Compound | EC50 [nM]
Cc1cccc(COCC(=O)NC23CC(NC(=O)COc4ccc(Cl)c(F)c4)(C2)C3)n1 [Compound 128, 2-(4-chloro-3-fluorophenoxy)-N-(3-{2-[(6-methylpyridin-2-yl)methoxy]acetamido}bicyclo[1.1.1]pentan-1-yl)acetamide] | 500 to 2000
O=C(COCc1ccc(Cl)cc1)NC12CC(NC(=O)COc3ccc(Cl)c(F)c3)(C1)C2 [Compound 130, 2-(4-chloro-3-fluorophenoxy)-N-(3-{2-[(4-chlorophenyl)methoxy]acetamido}-bicyclo[1.1.1]pentan-1-yl)acetamide] | 10 to 50
O=C(COCc1cccc(Cl)c1)NC12CC(NC(=O)COc3ccc(Cl)c(F)c3)(C1)C2 [Compound 131, 2-(4-chloro-3-fluorophenoxy)-N-(3-{2-[(3-chlorophenyl)methoxy]acetamido}-bicyclo[1.1.1]pentan-1-yl)acetamide] | 10 to 50
O=C(COCCc1cccc(F)c1)NC12CC(NC(=O)COc3ccc(Cl)c(F)c3)(C1)C2 [Compound 132, 2-(4-chloro-3-fluorophenoxy)-N-(3-{2-[2-(3-fluorophenyl)ethoxy]acetamido}-bicyclo[1.1.1]pentan-1-yl)acetamide] | 50 to 250
O=C(COCCc1cccc(Cl)c1)NC12CC(NC(=O)COc3ccc(Cl)c(F)c3)(C1)C2 [Compound 133, 2-(4-chloro-3-fluorophenoxy)-N-(3-{2-[2-(3-chlorophenyl)ethoxy]acetamido}-bicyclo[1.1.1]pentan-1-yl)acetamide] | 50 to 250
O=C(COCCc1ccc(F)cc1)NC12CC(NC(=O)COc3ccc(Cl)c(F)c3)(C1)C2 [Compound 134, 2-(4-chloro-3-fluorophenoxy)-N-(3-{2-[2-(4-fluorophenyl)ethoxy]acetamido}-bicyclo[1.1.1]pentan-1-yl)acetamide] | 50 to 250
O=C(COCCc1ccc(Cl)cc1)NC12CC(NC(=O)COc3ccc(Cl)c(F)c3)(C1)C2 [Compound 135, 2-(4-chloro-3-fluorophenoxy)-N-(3-{2-[2-(4-chlorophenyl)ethoxy]acetamido}-bicyclo[1.1.1]pentan-1-yl)acetamide] | 250 to 500
Cc1cccc(CCOCC(=O)NC23CC(NC(=O)COc4ccc(Cl)c(F)c4)(C2)C3)c1 [Compound 136, 2-(4-chloro-3-fluorophenoxy)-N-(3-{2-[2-(3-methylphenyl)ethoxy]acetamido}-bicyclo[1.1.1]pentan-1-yl)acetamide] | 250 to 500
Cc1ccc(CCOCC(=O)NC23CC(NC(=O)COc4ccc(Cl)c(F)c4)(C2)C3)cc1 [Compound 137, 2-(4-chloro-3-fluorophenoxy)-N-(3-{2-[2-(4-methylphenyl)ethoxy]acetamido}-bicyclo[1.1.1]pentan-1-yl)acetamide] | 500 to 2000
N#Cc1cccc(COCC(=O)NC23CC(NC(=O)COc4ccc(Cl)c(F)c4)(C2)C3)c1 [Compound 138, 2-(4-chloro-3-fluorophenoxy)-N-(3-{2-[(3-cyanophenyl)methoxy]acetamido}-bicyclo[1.1.1]pentan-1-yl)acetamide] | 250 to 500
N#Cc1ccc(COCC(=O)NC23CC(NC(=O)COc4ccc(Cl)c(F)c4)(C2)C3)cc1 [Compound 139, 2-(4-chloro-3-fluorophenoxy)-N-(3-{2-[(4-cyanophenyl)methoxy]acetamido}-bicyclo[1.1.1]pentan-1-yl)acetamide] | 250 to 500
Cc1cccc(COCC(=O)NC23CC(NC(=O)COc4ccc(Cl)c(F)c4)(C2)C3)c1 [Compound 140, 2-(4-chloro-3-fluorophenoxy)-N-(3-{2-[(3-methylphenyl)methoxy]acetamido}-bicyclo[1.1.1]pentan-1-yl)acetamide] | 50 to 250
CN(C)c1cccc(COCC(=O)NC23CC(NC(=O)COc4ccc(Cl)c(F)c4)(C2)C3)c1 [Compound 141] | 500 to 2000
O=C(COCc1ccc(F)cc1)NC12CC(NC(=O)COc3ccc(Cl)c(F)c3)(C1)C2 [Compound 142, 2-(4-chloro-3-fluorophenoxy)-N-(3-{2-[(4-fluorophenyl)methoxy]acetamido}-bicyclo[1.1.1]pentan-1-yl)acetamide] | 10 to 50
